The term pIC50 denotes −log10 of the IC50, conventionally taken in molar units.

pIC50: −log10 of the molar value.

Details of assay [1]: method as in PMID 35448805. Particulars: pure compounds, compared to ascorbic acid; cited from earlier work.
Assay [2] can be described thus: DPPH radical scavenging assay. Particulars: 30 min, absorbance 517 nm. As to the method: The free radical scavenging activity of lichen extracts was measured using 1,1-diphenyl-2-picryl-hydrazil (DPPH). The antioxidant activity via this method is described in several studies and here it is slightly modified. The extracts were dissolved in a small amount of pure DMSO and then filled with distilled water to a concentration of 1 mg/mL. In addition, 10 μL of 5% NaOH solution was added to help dissolve the extracts fully. Stock solutions were subsequently diluted to the desired concentrations. The reaction mixture consisted of 2 mL of DPPH methanolic solution (0.1 mM) and 1 mL of our extracts to reach a final volume of 3 mL. The samples were incubated at laboratory temperature in the dark for 30 min. After the incubation, the absorbance of the samples was measured at 517 nm in a spectrophotometer (multi-detection microplate reader; Synergy HT, BioTek, Winooski, VT, USA). Ascorbic acid was used as positive control. A solution of 5% DMSO (1 mL) in MeOH (2 mL) was used as a blank control. The DPPH radical concentration was calculated by the equation:Free radical scavenging activity (%) = [(A0 − A1)/A)] × 100(2) where A0 was the absorbance of negative control and A1 was the absorbance of the reaction mixture of our samples.
In general terms: DPPH is a stable violet radical that fades when it is reduced.

The subject of assay [3] is HCT116. Kind of assay: Resazurin screening assay, 2D culture. It counts as cell-based, human. Particulars: HCT116 (Colon), 72 h, secondary metabolites and cisplatin. As to the method: (§1) All experiments were performed in triplicate.
Assay [4] relates to A2780. Kind of assay: Resazurin screening assay, 2D culture. It counts as cell-based, human. Particulars: A2780 (Ovarian), 72 h, secondary metabolites and cisplatin. As to the method: as §1
(Alamar Blue is a resazurin reagent that responds to reducing activity.)

The test system of assay [5] is A549. Kind of assay: Resazurin screening assay, 2D culture. Particulars: A549 (Lung), 72 h, secondary metabolites and cisplatin. It counts as cell-based, human. As to the method:
as §1

In assay [6] the test system is BLM. Kind of assay: Resazurin screening assay, 2D culture. It counts as cell-based, human. Particulars: BLM (Melanoma), 72 h, secondary metabolites and cisplatin. As to the method:
as §1

The subject of assay [7] is HeLa. Kind of assay: Resazurin screening assay, 2D culture. The assay is classed as cell-based, human. Particulars: HeLa (Cervix), 72 h, secondary metabolites and cisplatin. As to the method: as §1
The test system of assay [8] is MCF-7. Kind of assay: Resazurin screening assay, 2D culture. The assay is classed as cell-based, human. Particulars: MCF-7 (Breast ER+), 72 h, secondary metabolites and cisplatin. As to the method: as §1
Assay [9] deals with MDA-MB-231. Kind of assay: Resazurin screening assay, 2D culture. It counts as cell-based, human. Particulars: MDA-MB-231 (Breast ER−), 72 h, secondary metabolites and cisplatin. As to the method: as §1
Assay [10] relates to BJ-5ta. Kind of assay: Resazurin screening assay, 2D culture. The assay is classed as cell-based, human. Particulars: BJ-5ta (Skin Fibroblasts), non-cancerous, 72 h, secondary metabolites and cisplatin. As to the method: as §1
Assay [11] relates to MCF-10A. Kind of assay: Resazurin screening assay, 2D culture. It counts as cell-based, human. Particulars: MCF-10A (Breast Epithelial), non-cancerous, 72 h, secondary metabolites and cisplatin. As to the method: as §1
The subject of assay [12] is COS-7. Kind of assay: Resazurin screening assay, 3D spheroids. It counts as cell-based. Particulars: COS-7 (Kidney Fibroblasts), non-cancerous, 72 h, secondary metabolites and cisplatin. As to the method:
as §1

In assay [13] the test system is HCT116. Kind of assay: Resazurin screening assay, 3D spheroids. The assay is classed as cell-based, human. Particulars: HCT116 (Colon), 72 h, secondary metabolites and cisplatin. As to the method: as §1
For assay [14], the system named is Jurkat. Kind of assay: Resazurin screening assay, 3D spheroids. The assay is classed as cell-based, human. Particulars: Jurkat (Leukemia), 72 h, secondary metabolites and cisplatin. As to the method:
as §1

For assay [15], the system named is A2780. Kind of assay: Resazurin screening assay, 3D spheroids. Particulars: A2780 (Ovarian), 72 h, secondary metabolites and cisplatin. The assay is classed as cell-based, human. As to the method:
as §1

The test system of assay [16] is A549. Kind of assay: Resazurin screening assay, 3D spheroids. It counts as cell-based, human. Particulars: A549 (Lung), 72 h, secondary metabolites and cisplatin. As to the method:
as §1

In assay [17] the test system is BLM. Kind of assay: Resazurin screening assay, 3D spheroids. The assay is classed as cell-based, human. Particulars: BLM (Melanoma), 72 h, secondary metabolites and cisplatin. As to the method:
as §1

For assay [18], the system named is HeLa. Kind of assay: Resazurin screening assay, 3D spheroids. Particulars: HeLa (Cervix), 72 h, secondary metabolites and cisplatin. It counts as cell-based, human. As to the method: as §1
For assay [19], the system named is MCF-7. Kind of assay: Resazurin screening assay, 3D spheroids. The assay is classed as cell-based, human. Particulars: MCF-7 (Breast ER+), 72 h, secondary metabolites and cisplatin. As to the method:
as §1

Assay [20] deals with MDA-MB-231. Kind of assay: Resazurin screening assay, 3D spheroids. The assay is classed as cell-based, human. Particulars: MDA-MB-231 (Breast ER−), 72 h, secondary metabolites and cisplatin. As to the method: as §1
Assay [21] deals with BJ-5ta. Kind of assay: Resazurin screening assay, 3D spheroids. It counts as cell-based, human. Particulars: BJ-5ta (Skin Fibroblasts), non-cancerous, 72 h, secondary metabolites and cisplatin. As to the method:
as §1

The test system of assay [22] is MCF-10A. Kind of assay: Resazurin screening assay, 3D spheroids. The assay is classed as cell-based, human. Particulars: MCF-10A (Breast Epithelial), non-cancerous, 72 h, secondary metabolites and cisplatin. As to the method: as §1
The subject of assay [23] is Jurkat. Kind of assay: Resazurin screening assay, 2D suspension culture. It counts as cell-based, human. Particulars: Jurkat (Leukemia), 72 h, secondary metabolites and cisplatin. As to the method:
as §1

For assay [24], the system named is COS-7. Kind of assay: Resazurin screening assay, 2D culture. The assay is classed as cell-based. Particulars: COS-7 (Kidney Fibroblasts), non-cancerous, 72 h, secondary metabolites and cisplatin. As to the method:
as §1

For assay [25], the system named is Staphyloccocus aureus CCM 4223. Kind of assay: Agar well-diffusion method. Particulars: pure compound 0.57 mM. The assay is classed as cell-based. (A growth-free zone around the sample is the usual read-out of agar diffusion tests.)

Regarding `COC(=O)c1c(C)cc(OC(=O)c2c(C)cc(O)c(C=O)c2O)c(C)c1O` [A, atranorin], the “free radical scavenging activity in DPPH assay (in words)” value (“free radical scavenging activity” for short) in assay [1] is “None of the tested compounds showed notable free radical scavenging activity”.
In the case of `O=C1O[C@H]([C@@H](O)CO)C(O)=C1O` [Ascorbic acid], the “IC50 by DPPH radical scavenging assay” value in assay [2] is given as 7.7 ± 0.4 µg/mL.
For the compound `N.N.[Cl][Pt][Cl]` [CisPt, cisplatin], the pIC50 is 5.13 in assay [3]; 5.03 in [4]; 4.63 in assay [5]; 4.53 in assay [6]; 4.45 in [7]; 4.53 in [8]. The pIC50 is 5.15 in assay [9]; 4.42 in [10]; 4.59 in assay [11]; 3.81 in assay [12]; 4.01 in assay [13]; 5.17 in [14]. Also, the negative logarithm of the IC50 (pIC50) in assay [15] is 3.87; in [16], 3.92; in [17], 4.05; in assay [18] it was 4.11; in assay [19] it was 4.11; in assay [20], 4.12. Further, the pIC50 in [21] was 3.73; in assay [22], 3.92; in assay [23] it was 5.20; in assay [24], 4.61.
As for `COc1cc(C)c(C(=O)Oc2cc(C)c(C(=O)O)c(O)c2)c(O)c1` [EA, evernic acid], the “free radical scavenging activity” value in assay [1] is given as “None of the tested compounds showed notable free radical scavenging activity”.
Take `Cc1cc(OC(=O)c2c(C)cc(OC(=O)c3c(C)cc(O)cc3O)cc2O)cc(O)c1C(=O)O` [GA, gyrophoric acid]: in [1], the “free radical scavenging activity” value is given as “None of the tested compounds showed notable free radical scavenging activity”.
For `CCCCCC(=O)Cc1cc(O)cc2c1C(=O)Oc1cc(O)c(C(=O)O)c(CCCCC)c1O2` [Phy, physodic acid], the “free radical scavenging activity” value in assay [1] is “None of the tested compounds showed notable free radical scavenging activity”. In addition, in assay [25], the “effectiveness among the chosen secondary metabolites (in words)” value was “most effective”. The “% RIZD S. aureus” value in assay [25] (relative inhibition zone diameter vs gentamicin 50 µg/mL) is listed as 118.78%.

The values above are taken from paper PMC9919983, “Screening Evaluation of Antiproliferative, Antimicrobial and Antioxidant Activity of Lichen Extracts and Secondary Metabolites In Vitro” (Plants, 2023).
